Data reported in patent publication US8242118B2, “Arylsulfonamide derivatives for use as CCR3 antagonists in the treatment of inflammatory and immunological disorders” (Axikin Pharmaceuticals Inc., priority 2001, dated 2012).

target: T1, Human CCR3 (Homo sapiens, UniProt P51677); assay: Calcium mobilization assay, eotaxin-stimulated; assay type: cell-based; settings: human CCR3-transformed K562 cells, 10 nM eotaxin; compounds of about 40 to 90% purity; read-out: Activity grade Ca2+ (IC50 class)
T1 construct: The cloned CCR3 cDNA was constructed with pcDNA3 vector and transfected into a IC562 cell line; expressed in transfected cells
T1 sequence (P51677 1-355): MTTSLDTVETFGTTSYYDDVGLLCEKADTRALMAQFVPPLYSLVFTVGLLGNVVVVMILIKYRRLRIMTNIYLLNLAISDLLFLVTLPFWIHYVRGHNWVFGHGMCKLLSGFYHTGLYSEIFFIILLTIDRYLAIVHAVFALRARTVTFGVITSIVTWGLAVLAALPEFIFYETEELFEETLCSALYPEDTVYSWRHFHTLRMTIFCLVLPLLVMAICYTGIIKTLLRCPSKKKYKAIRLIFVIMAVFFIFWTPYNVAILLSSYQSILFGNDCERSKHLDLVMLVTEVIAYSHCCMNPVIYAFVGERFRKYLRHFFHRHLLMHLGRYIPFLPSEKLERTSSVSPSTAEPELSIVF
Procedure, shortened: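 Eotaxin (10 nM final) triggered calcium flux, monitored 60 s with Fluo-3AM, in butyrate-pretreated (5 mM, 20–24 h) CCR3-transfected K562 cells. Compounds preincubated 10 min; percent inhibition per concentration yielded IC50.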

| IC50 | SMILES |
| --- | --- |
| < 1000 nM | O=[N+]([O-])c1ccc(Sc2cc(Cl)cc(Cl)c2)c(S(=O)(=O)N2CCC(N3CCCCC3)CC2)c1 [Example 2-3] |
| < 1000 nM | Cl.N[C@@H]1CCN(S(=O)(=O)c2cc([N+](=O)[O-])ccc2Sc2cc(Cl)cc(Cl)c2)C1 [Example 2-11] |
| < 1000 nM | N[C@H]1CCN(S(=O)(=O)c2cc([N+](=O)[O-])ccc2Sc2cc(Cl)cc(Cl)c2)C1 [Example 2-12] |
| < 1000 nM | CC1CCCCN1CCCNS(=O)(=O)c1cc([N+](=O)[O-])ccc1Sc1cc(Cl)cc(Cl)c1 (stereo not shown) [Example 2-13] |
| < 1000 nM | O=[N+]([O-])c1ccc(Sc2cc(Cl)cc(Cl)c2)c(S(=O)(=O)N2CCC(N3CCCC3)CC2)c1 [Example 2-22] |
| < 1000 nM | CN(C)CCN(C)S(=O)(=O)c1cc([N+](=O)[O-])ccc1Sc1cc(Cl)cc(Cl)c1 [Example 2-23] |
| < 1000 nM | O=[N+]([O-])c1ccc(Sc2cc(Cl)cc(Cl)c2)c(S(=O)(=O)NCCN2CCCCC2)c1 [Example 2-24] |
| < 1000 nM | O=[N+]([O-])c1ccc(Nc2cc(Cl)cc(Cl)c2)c(S(=O)(=O)N2CCNCC2)c1 [Example 3-2] |
| 1000 to 10000 nM | Cc1ccccc1Nc1ccc([N+](=O)[O-])cc1S(=O)(=O)N1CCNCC1 [Example 3-3] |
| 1000 to 10000 nM | Cc1cccc(Nc2ccc([N+](=O)[O-])cc2S(=O)(=O)N2CCNCC2)c1 [Example 3-4] |
| 1000 to 10000 nM | Cc1ccc(Nc2ccc([N+](=O)[O-])cc2S(=O)(=O)N2CCNCC2)cc1 [Example 3-5] |
| 1000 to 10000 nM | O=[N+]([O-])c1ccc(Nc2ccccc2Cl)c(S(=O)(=O)N2CCNCC2)c1 [Example 3-6] |
| < 1000 nM | Cc1cc(C)cc(Oc2ccc([N+](=O)[O-])cc2S(=O)(=O)NCCN2CCCCC2)c1 [Example 4-2] |
| < 1000 nM | Cc1cc(C)cc(Oc2ccc([N+](=O)[O-])cc2S(=O)(=O)NCCN2CCOCC2)c1 [Example 4-3] |
| < 1000 nM | Cc1cc(C)cc(Oc2ccc([N+](=O)[O-])cc2S(=O)(=O)N2CCN(C)CC2)c1 [Example 4-4] |
| < 1000 nM | CCN1CCN(S(=O)(=O)c2cc([N+](=O)[O-])ccc2Oc2cc(C)cc(C)c2)CC1 [Example 4-5] |
| < 1000 nM | Cc1cc(C)cc(Oc2ccc([N+](=O)[O-])cc2S(=O)(=O)N2CCN(C3CCCCC3)CC2)c1 [Example 4-6] |
| > 10000 nM | Cc1cc(C)cc(Oc2ccc([N+](=O)[O-])cc2S(=O)(=O)N2CCN(c3ccccc3)CC2)c1 [Example 4-7] |
| > 10000 nM | Cc1ccc(N2CCN(S(=O)(=O)c3cc([N+](=O)[O-])ccc3Oc3cc(C)cc(C)c3)CC2)cc1 [Example 4-8] |
| < 1000 nM | CCN1CCC(N(CC)S(=O)(=O)c2cc([N+](=O)[O-])ccc2Oc2cc(C)cc(C)c2)C1 (stereo not shown) [Example 4-12] |

| IC50 | SMILES |
| --- | --- |
| < 1000 nM | Cc1cc(C)cc(Oc2ccc([N+](=O)[O-])cc2S(=O)(=O)N2CC[C@@H](N(C)C)C2)c1 [Example 4-13] |
| < 1000 nM | Cc1cc(C)cc(Oc2ccc([N+](=O)[O-])cc2S(=O)(=O)N(C)CCN(C)C)c1 [Example 4-14] |
| < 1000 nM | Cc1cc(C)cc(Oc2ccc([N+](=O)[O-])cc2S(=O)(=O)N2CCN(C(C)C)CC2)c1 [Example 4-15] |
| < 1000 nM | CCC(C)N1CCN(S(=O)(=O)c2cc([N+](=O)[O-])ccc2Oc2cc(C)cc(C)c2)CC1 (stereo not shown) [Example 4-16] |
| < 1000 nM | CCCC(C)N1CCN(S(=O)(=O)c2cc([N+](=O)[O-])ccc2Oc2cc(C)cc(C)c2)CC1 (stereo not shown) [Example 4-17] |
| 1000 to 10000 nM | CCC(CC)N1CCN(S(=O)(=O)c2cc([N+](=O)[O-])ccc2Oc2cc(C)cc(C)c2)CC1 [Example 4-18] |
| < 1000 nM | Cc1cc(C)cc(Oc2ccc([N+](=O)[O-])cc2S(=O)(=O)N2CCN(C3CCCC3)CC2)c1 [Example 4-19] |
| < 1000 nM | CN(C)CCN(C)S(=O)(=O)c1cc([N+](=O)[O-])ccc1Oc1cc(Cl)cc(Cl)c1 [Example 4-20] |
| < 1000 nM | CCN(CC)C1CCN(S(=O)(=O)c2cc([N+](=O)[O-])ccc2Oc2cc(Cl)cc(Cl)c2)C1 (stereo not shown) [Example 4-21] |
| < 1000 nM | O=[N+]([O-])c1ccc(Oc2cc(Cl)cc(Cl)c2)c(S(=O)(=O)N2CCC[C@H]2CN2CCCC2)c1 [Example 4-22] |
| < 1000 nM | CN1CCC(N(C)S(=O)(=O)c2cc([N+](=O)[O-])ccc2Oc2cc(Cl)cc(Cl)c2)C1 (stereo not shown) [Example 4-23] |
| < 1000 nM | Cc1cc(C)cc(Oc2ccc([N+](=O)[O-])cc2S(=O)(=O)N2CCC(N(C)C)CC2)c1.Cl [Example 4-24] |
| < 1000 nM | Cc1cc(C)cc(Oc2ccc([N+](=O)[O-])cc2S(=O)(=O)N2CCN(CC3CCCO3)CC2)c1 (stereo not shown) [Example 4-26] |
| < 1000 nM | O=[N+]([O-])c1ccc(Oc2cc(Cl)cc(Cl)c2)c(S(=O)(=O)N2CCN(CC3CCCO3)CC2)c1 (stereo not shown) [Example 4-27] |
| < 1000 nM | O=[N+]([O-])c1ccc(Oc2cc(Cl)cc(Cl)c2)c(S(=O)(=O)N2CCC(N3CCCCC3)CC2)c1 [Example 4-29] |
| < 1000 nM | Cc1cc(C)cc(Oc2ccc([N+](=O)[O-])cc2S(=O)(=O)N2CCN(CCC(F)(F)F)CC2)c1 [Example 4-33] |
| < 1000 nM | O=[N+]([O-])c1ccc(Oc2cc(Cl)cc(Cl)c2)c(S(=O)(=O)N2CCN(CCC(F)(F)F)CC2)c1 [Example 4-34] |
| < 1000 nM | COCCCN1CCN(S(=O)(=O)c2cc([N+](=O)[O-])ccc2Oc2cc(Cl)cc(Cl)c2)CC1 [Example 4-36] |
| < 1000 nM | O=[N+]([O-])c1ccc(Oc2cc(Cl)cc(Cl)c2)c(S(=O)(=O)N2CCC(N3CCCC3)C2)c1 (stereo not shown) [Example 4-38] |
| > 10000 nM | Cc1cc(C)cc(Oc2ccc(N)cc2S(=O)(=O)N2CCNCC2)c1.O=C(O)C(F)(F)F [Example 5-3] |

| IC50 | SMILES |
| --- | --- |
| < 1000 nM | CCN1CCN(S(=O)(=O)c2cc(Cl)ccc2Oc2cc(C)cc(C)c2)CC1 [Example 5-4] |
| < 1000 nM | CCN1CCN(S(=O)(=O)c2cc(I)ccc2Oc2cc(C)cc(C)c2)CC1 [Example 5-5] |
| < 1000 nM | Cc1cc(C)cc(Oc2ccc(I)cc2S(=O)(=O)N2CCNCC2)c1.Cl [Example 5-6] |
| > 10000 nM | Cc1cc(C)cc(Oc2cc(C)c(N)cc2S(=O)(=O)N2CCNCC2)c1.Cl.Cl [Example 5-7] |
| < 1000 nM | Cc1cc(C)cc(Oc2ccc(F)cc2S(=O)(=O)N2CCNCC2)c1 [Example 6-3] |
| > 10000 nM | CC(=O)Nc1ccc(Oc2cc(C)cc(C)c2)c(S(=O)(=O)N2CCNCC2)c1 [Example 7-2] |
| > 10000 nM | Cc1cc(C)cc(Oc2ccc(NC(=O)C(C)(C)C)cc2S(=O)(=O)N2CCNCC2)c1 [Example 7-3] |
| > 10000 nM | Cc1cc(C)cc(Oc2ccc(NC(=O)CC(C)C)cc2S(=O)(=O)N2CCNCC2)c1 [Example 7-4] |
| > 10000 nM | Cc1cc(C)cc(Oc2ccc(NC(=O)c3ccccc3)cc2S(=O)(=O)N2CCNCC2)c1 [Example 7-5] |
| > 10000 nM | Cc1ccc(C(=O)Nc2ccc(Oc3cc(C)cc(C)c3)c(S(=O)(=O)N3CCNCC3)c2)cc1 [Example 7-6] |
| 1000 to 10000 nM | Cc1cc(C)cc(Oc2ccc(NC(=O)c3cccc4ccccc34)cc2S(=O)(=O)N2CCNCC2)c1 [Example 7-7] |
| > 10000 nM | Cc1cc(C)cc(Oc2ccc(NC(=O)CCc3ccccc3)cc2S(=O)(=O)N2CCNCC2)c1 [Example 7-8] |
| > 10000 nM | Cc1cc(C)cc(Oc2ccc(NC(=O)c3cccs3)cc2S(=O)(=O)N2CCNCC2)c1 [Example 7-9] |
| < 1000 nM | Cc1cc(C)cc(Oc2ccc(S(=O)(=O)N(C)C)cc2S(=O)(=O)N2CCNCC2)c1.Cl [Example 10-2] |
| 1000 to 10000 nM | N#Cc1ccc(Oc2cc(Cl)cc(Cl)c2)c(S(=O)(=O)N2CCCC3CN(Cc4ccccc4)CC32)c1 (stereo not shown) [Example 13-2] |
| < 1000 nM | N#Cc1ccc(Oc2cc(Cl)cc(Cl)c2)c(S(=O)(=O)N2C[C@H]3C[C@@H]2CN3)c1 [Example 13-4] |
| < 1000 nM | N#Cc1ccc(Oc2cc(Cl)cc(Cl)c2)c(S(=O)(=O)N2C[C@@H]3CCCN[C@@H]3C2)c1 [Example 13-5] |
| < 1000 nM | COCCCN1CCN(S(=O)(=O)c2cc(C#N)ccc2Oc2cc(Cl)cc(Cl)c2)CC1 [Example 13-7] |
